Earlier results on nine compounds are cited in PubChem BioAssay AID1259410 (Chemical Carcinogenesis Research Information System (CCRIS), 2018).

The test system of this series is rodent tumor promotion studies, tumor incidence. The experiment in a line: CCRIS tumor promotion studies.

For `C=C1[C@@H](O)[C@@H]2O[C@]3(CC[C@H](/C=C/[C@@H](C)[C@@H]4CC(C)=C[C@@]5(O[C@H](C[C@@](C)(O)C(=O)O)CCC5O)O4)O3)CC[C@H]2O[C@@H]1[C@@H](O)C[C@H](C)[C@H]1O[C@@]2(CCCCO2)CC[C@H]1C` (stereo not given in full), the outcome runs as follows: (Carcinogen: 7,12-DIMETHYLBENZ[A]ANTHRACENE, 57-97-6, Doses [Carcinogen]: 100 UG IN 0.1 ML OF ACETONE ONCE, Doses [Promoter]: 0, 5 UG IN 0.1 ML OF ACETONE 2/WK FOR 30 WK BEGINNING 1 WK POST CARCINOGEN DOSE (STUDY DURATION: 31 WK), Route [Carcinogen]: DERMAL, Route [Promoter]: DERMAL, Species: MOUSE, Strain/Sex: CD-1/FEMALE) “skin: tumor”; (Carcinogen: N-METHYL-N'-NITRO-N-NITROSOGUANIDINE, 70-25-7, Doses [Carcinogen]: 100 MG/L OF DEIONIZED WATER AS DRINKING WATER FOR 8 WK, Doses [Promoter]: 0.25 MG/L IN DRINKING WATER BEGINNING 1 WK POST CARCINOGEN TREATMENT AND CONTINUING FOR 46 WK THEN 0.5 MG/L FOR 17 WK (S, Route [Carcinogen]: ORAL, Route [Promoter]: ORAL, Species: RAT, Strain/Sex: SPRAGUE-DAWLEY/MALE) “glandular stomach: neoplasms”.

Turning to `CC(=O)O[C@@]12[C@H](OC(=O)/C=C(C)/C=C/C=C(C)/C=C/C3=C(C)CCCC3(C)C)[C@@H](C)[C@@]3(O)[C@@H](C=C(CO)C[C@]4(O)C(=O)C(C)=C[C@@H]34)[C@@H]1C2(C)C`, the outcome (Carcinogen: 7,12-DIMETHYLBENZ[A]ANTHRACENE, 57-97-6, Doses [Carcinogen]: 10 NMOL ONCE, Doses [Promoter]: 0, 2.5, 5 UG IN 0.2 ML ACETONE 2/WK FOR 21 WK BEGINNING 1 WK POST CARCINOGEN (STUDY DURATION: 21 WK), Doses [Promoter]: 0, 2.5, 5 UG IN 0.2 ML ACETONE 2/WK FOR 21 WK BEGINNING 1 WK POST CARCINOGEN (STUDY DURATION: 21 WK), Route [Carcinogen]: DERMAL, Route [Promoter]: DERMAL, Species: MOUSE, Strain/Sex: SENCAR/FEMALE) was “skin: papilloma”.

Turning to `N[C@@H](Cc1cc(I)c(Oc2cc(I)c(O)c(I)c2)c(I)c1)C(=O)O`, the outcome by setting is: (Carcinogen: AZOXYMETHANE, 25843-45-2, Doses [Carcinogen]: 7.4 MG/KG IN 0.9% SALINE 1/WK FOR 10 WK, Doses [Promoter]: 0, 0.2 UG/KG IN OLIVE OIL 1/2 D FOR 35 WK (STUDY DURATION: 35 WK), Route [Carcinogen]: SUBCUTANEOUS, Route [Promoter]: SUBCUTANEOUS, Species: RAT, Strain/Sex: WISTAR/MALE) “colon: tumor”; (Carcinogen: N-METHYL-N'-NITRO-N-NITROSOGUANIDINE, 70-25-7, Doses [Carcinogen]: 25 UG/ML IN DRINKING WATER FOR 25 WK, Doses [Promoter]: 0, 0.2 UG/KG BW IN OLIVE OIL 1/2 D BEGINNING POST CARCINOGEN TREATMENT AND CONTINUING FOR 26 WK (STUDY DURATION: 52 WK), Route [Carcinogen]: ORAL, Route [Promoter]: SUBCUTANEOUS, Species: RAT, Strain/Sex: WISTAR/MALE) “stomach: adenocarcinoma”.

With `CCCCCCCC/C=C/CCCCCCCC(=O)OCCOCC(OCCO)C1OCC(OCCO)C1OCCO` (stereo not given), where the note is “Carcinogen: 7,12-DIMETHYLBENZ(A)ANTHRACENE, Doses [Carcinogen]: TOP, Route [Carcinogen]: DERMAL, Route [Promoter]: DERMAL, Species: MOUSE, Strain/Sex: FEMALE”, the outcome was “integumentary system (skin)”.

Consider `CC(O)CN(C)N=O` (stereo not given), for which the outcome is “kidney: nephroblastoma” (Carcinogen: 1-NITRO-1,3-DIMETHYLUREA, 13256-32-1, Doses [Carcinogen]: 10 MG/ML IN ETHYL ACETATE/CORN OIL (1:1) 1/WK FOR 2 WK, Doses [Promoter]: 0, 20 MG/L IN DRINKING WATER 5D/WK FOR 40 WK BEGINNING 1/WK POST CARCINOGEN TREATMENT (STUDY DURATION: 43 WK), Route [Carcinogen]: GAVAGE, Route [Promoter]: ORAL, Species: RAT, Strain/Sex: F344/MALE); “thyroid: adenocarcinoma; lung: adenocarcinoma; kidney: nephroblastoma” (Carcinogen: 1-NITROSO-1,3-DIETHYLUREA, 49540-32-1, Doses [Carcinogen]: 12 MG/ML IN ETHYL ACETATE/CORN OIL (1:1) 1/WK FOR 2 WK, Doses [Promoter]: 0, 20 MG/L IN DRINKING WATER 5 D/WK FOR 40 WK BEGINNING 1/WK POST CARCINOGEN TREATMENT (STUDY DURATION: 43 WK), Route [Carcinogen]: GAVAGE, Route [Promoter]: ORAL, Species: RAT, Strain/Sex: F344/MALE); “kidney: renal cell carcinoma” (Carcinogen: NITROSOBIS(2-OXOPROPYL)AMINE, 60599-38-4, Doses [Carcinogen]: 12 MG/ML IN ETHYL ACETATE/CORN OIL (1:1) 2/WK FOR 2 WK, Doses [Promoter]: 0, 20 MG/L IN DRINKING WATER 5D/WK FOR 40 WK BEGINNING 1/WK POST CARCINOGEN TREATMENT (STUDY DURATION: 43 WK), Route [Carcinogen]: GAVAGE, Route [Promoter]: ORAL, Species: RAT, Strain/Sex: F344/MALE).

For the compound `CCCCCCCC/C=C\CCCCCCCC(=O)OC[C@@H](O)[C@H]1OC[C@H](O)[C@H]1O`, the outcome (Carcinogen: 7,12-DIMETHYLBENZ(A)ANTHRACENE, Doses [Carcinogen]: TOP, Route [Carcinogen]: DERMAL, Route [Promoter]: DERMAL, Species: MOUSE, Strain/Sex: MALE) was “integumentary system (skin)”.

With `Cc1cccc(C)c1NC1=NCCCS1`, the outcome is “thyroid gland: follicular cell adenoma or carcinoma” (Carcinogen: N-BIS(2-HYDROXYPROPYL)NITROSAMINE, 53609-64-6, Doses [Carcinogen]: 2,400 MG/KG ONCE, Doses [Promoter]: 0, 1,000 PPM IN DIET FOR 52 WK BEGINNING 1 WK POST CARCINOGEN DOSE (STUDY DURATION: 28 WK), Route [Carcinogen]: SUBCUTANEOUS, Route [Promoter]: ORAL, Species: RAT, Strain/Sex: F344/MALE); “thyroid gland: follicular cell hyperplasia, follicular cell adenoma” (Carcinogen: N-NITROSOBIS(2-HYDROXYPROPYL)AMINE [53609-64-6], Doses [Carcinogen]: 2400 MG/KG IN SALINE ONCE, Doses [Promoter]: 0, 250, 500, 1000 PPM IN DIET FOR 26 WK, BEGINNING 1 WK AFTER CARCINOGEN DOSE (STUDY DURATION: 27 WK), Doses [Promoter]: 0, 250, 500, 1000 PPM IN DIET FOR 26 WK, BEGINNING 1 WK AFTER CARCINOGEN DOSE (STUDY DURATION: 27 WK), Route [Carcinogen]: SUBCUTANEOUS, Route [Promoter]: ORAL, Species: RAT, Strain/Sex: F344/MALE); “thyroid: adenoma and carcinoma” (Carcinogen: N-NITROSOBIS(2-HYDROXYPROPYL)AMINE, 53609-64-6, Doses [Carcinogen]: 2400 MG/KG IN SALINE ONCE, Doses [Promoter]: 0, 1,000 PPM IN FEED FOR 52 WK BEGINNING 1 WK POST CARCINOGEN TREATMENT (STUDY DURATION: 53 WK), Route [Carcinogen]: SUBCUTANEOUS, Route [Promoter]: ORAL, Species: RAT, Strain/Sex: F344/MALE).

For the compound `O=NN1CCC[C@H]1c1cccnc1`, the outcome (Carcinogen: Diethylnitrosamine, 55-18-5, Doses [Carcinogen]: 40 mg/l for 4 consecutive d/wk for 180 days, study duration 180 d, Doses [Promoter]: 30 mg/l, 3 d /wk for 180 d, study duration 180 d, Doses [Promoter]: 30 mg/l, 3 d /wk for 180 d, study duration 180 d, Route [Carcinogen]: Oral (drinking water), Route [Promoter]: Oral (drinking water), Species: Mouse, Strain/Sex: CF1/Female (16, 46/Group)) is recorded as “stomach: squamous cell carcinoma (33% vs 22%); adenocarcinoma (17% vs 15%); both”.

Take `CC1=CC[C@H]2C[C@@H]1C2(C)C`: the outcome (Carcinogen: 7,12-DIMETHYLBENZ(A)ANTHRACENE, Doses [Carcinogen]: TOP, Route [Carcinogen]: DERMAL, Route [Promoter]: DERMAL, Species: MOUSE) is “integumentary system (skin)”.
